Measurements as given in ChEMBL document CHEMBL1201862, “PubChem BioAssay data set” (2004).
The source made the active and inactive calls.

Assays:
[1] = target: DNA dC->dU-editing enzyme APOBEC-3A (Homo sapiens, UniProt P31941); assay: A3A deaminase inhibition for selectivity – biochemical, dose response (AID 504722); format: functional
[2] = target: DNA dC->dU-editing enzyme APOBEC-3G (Homo sapiens, UniProt Q9HC16); assay: Dose Response confirmation of small molecule APOBEC3G DNA Deaminase Inhibitors via a fluorescence-based single-stranded DNA deaminase assay. [Related pubchem assays (depositor defined):AID493012, AID493028]; format: functional
DNA dC->dU-editing enzyme APOBEC-3G, sequence (Q9HC16 whole entry): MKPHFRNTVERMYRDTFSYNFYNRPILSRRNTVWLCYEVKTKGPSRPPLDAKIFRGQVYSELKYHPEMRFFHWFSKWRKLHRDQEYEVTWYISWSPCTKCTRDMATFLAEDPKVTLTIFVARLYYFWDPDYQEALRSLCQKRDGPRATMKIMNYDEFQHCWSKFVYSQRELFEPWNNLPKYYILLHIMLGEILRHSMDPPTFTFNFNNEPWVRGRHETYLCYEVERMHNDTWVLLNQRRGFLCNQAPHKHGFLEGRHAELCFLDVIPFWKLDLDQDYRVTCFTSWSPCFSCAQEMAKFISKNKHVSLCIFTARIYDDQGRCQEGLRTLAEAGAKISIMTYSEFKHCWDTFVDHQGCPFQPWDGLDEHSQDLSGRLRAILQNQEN

[3] = target: T1, Tyrosine-protein phosphatase non-receptor type 11 (Homo sapiens, UniProt Q06124); assay: PTPN11 enzyme inhibitors – biochemical, selectivity assay for STEP inhibitor project, dose response (AID 602367); format: functional; conditions: read-out: IC50_Mean
T1 sequence (Q06124 whole entry): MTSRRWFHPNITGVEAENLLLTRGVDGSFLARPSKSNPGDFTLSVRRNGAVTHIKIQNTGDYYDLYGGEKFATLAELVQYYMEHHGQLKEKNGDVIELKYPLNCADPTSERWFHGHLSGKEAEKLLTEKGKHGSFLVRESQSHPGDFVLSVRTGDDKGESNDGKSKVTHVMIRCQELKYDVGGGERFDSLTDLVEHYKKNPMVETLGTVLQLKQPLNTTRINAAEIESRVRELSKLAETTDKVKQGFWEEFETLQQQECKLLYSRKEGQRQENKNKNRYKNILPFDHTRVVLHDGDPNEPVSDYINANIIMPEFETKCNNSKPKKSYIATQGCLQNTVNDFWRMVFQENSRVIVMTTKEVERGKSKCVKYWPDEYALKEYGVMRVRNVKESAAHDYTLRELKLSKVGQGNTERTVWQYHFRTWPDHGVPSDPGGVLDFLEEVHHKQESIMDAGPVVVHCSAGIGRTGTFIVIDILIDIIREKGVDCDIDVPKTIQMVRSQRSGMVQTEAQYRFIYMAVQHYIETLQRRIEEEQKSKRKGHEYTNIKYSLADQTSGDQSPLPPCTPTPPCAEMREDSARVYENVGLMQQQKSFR

[4] = target: T2, Tyrosine-protein phosphatase non-receptor type 5 (Homo sapiens, UniProt P54829); assay: PTPN5 enzyme inhibition – biochemical, fluorescence intensity, uHTS hits, confirmation (AID 602372); format: functional; conditions: read-out: IC50_Mean
T2 sequence (P54829 whole entry): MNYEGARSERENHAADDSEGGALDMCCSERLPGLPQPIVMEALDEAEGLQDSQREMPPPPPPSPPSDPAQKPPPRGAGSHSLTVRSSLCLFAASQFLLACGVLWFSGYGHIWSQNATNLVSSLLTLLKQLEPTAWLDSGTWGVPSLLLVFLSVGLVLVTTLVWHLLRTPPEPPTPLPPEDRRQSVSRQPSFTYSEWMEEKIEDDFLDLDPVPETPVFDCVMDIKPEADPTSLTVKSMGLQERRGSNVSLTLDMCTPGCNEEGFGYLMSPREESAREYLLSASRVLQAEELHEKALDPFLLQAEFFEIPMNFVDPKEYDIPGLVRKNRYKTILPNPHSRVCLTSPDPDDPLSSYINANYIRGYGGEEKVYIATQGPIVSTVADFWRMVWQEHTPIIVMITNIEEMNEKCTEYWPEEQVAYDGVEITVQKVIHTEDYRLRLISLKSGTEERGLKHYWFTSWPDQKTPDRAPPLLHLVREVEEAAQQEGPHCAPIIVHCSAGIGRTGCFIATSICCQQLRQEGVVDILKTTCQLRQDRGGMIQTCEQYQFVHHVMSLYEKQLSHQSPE

[5] = target: Dual specificity protein phosphatase 3 (Homo sapiens, UniProt P51452); assay: VHR phosphatase inhibition, dose response, selectivity assay for STEP inhibitor project, biochemical (AID 602374); format: functional; conditions: read-out: IC50_Mean
Dual specificity protein phosphatase 3, sequence (P51452 whole entry): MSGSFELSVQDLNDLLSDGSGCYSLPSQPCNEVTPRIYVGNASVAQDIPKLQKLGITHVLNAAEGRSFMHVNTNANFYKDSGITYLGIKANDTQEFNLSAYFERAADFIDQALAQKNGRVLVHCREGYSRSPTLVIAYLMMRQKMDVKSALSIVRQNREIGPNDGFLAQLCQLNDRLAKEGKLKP

[6] = target: T3, Tyrosine-protein phosphatase non-receptor type 22 (Homo sapiens, UniProt Q9Y2R2); assay: lymphoid phosphatase LYP inhibitors – biochemical, selectivity assay for STEP inhibitor project, dose response (AID 624241); format: functional
T3 sequence (Q9Y2R2 whole entry): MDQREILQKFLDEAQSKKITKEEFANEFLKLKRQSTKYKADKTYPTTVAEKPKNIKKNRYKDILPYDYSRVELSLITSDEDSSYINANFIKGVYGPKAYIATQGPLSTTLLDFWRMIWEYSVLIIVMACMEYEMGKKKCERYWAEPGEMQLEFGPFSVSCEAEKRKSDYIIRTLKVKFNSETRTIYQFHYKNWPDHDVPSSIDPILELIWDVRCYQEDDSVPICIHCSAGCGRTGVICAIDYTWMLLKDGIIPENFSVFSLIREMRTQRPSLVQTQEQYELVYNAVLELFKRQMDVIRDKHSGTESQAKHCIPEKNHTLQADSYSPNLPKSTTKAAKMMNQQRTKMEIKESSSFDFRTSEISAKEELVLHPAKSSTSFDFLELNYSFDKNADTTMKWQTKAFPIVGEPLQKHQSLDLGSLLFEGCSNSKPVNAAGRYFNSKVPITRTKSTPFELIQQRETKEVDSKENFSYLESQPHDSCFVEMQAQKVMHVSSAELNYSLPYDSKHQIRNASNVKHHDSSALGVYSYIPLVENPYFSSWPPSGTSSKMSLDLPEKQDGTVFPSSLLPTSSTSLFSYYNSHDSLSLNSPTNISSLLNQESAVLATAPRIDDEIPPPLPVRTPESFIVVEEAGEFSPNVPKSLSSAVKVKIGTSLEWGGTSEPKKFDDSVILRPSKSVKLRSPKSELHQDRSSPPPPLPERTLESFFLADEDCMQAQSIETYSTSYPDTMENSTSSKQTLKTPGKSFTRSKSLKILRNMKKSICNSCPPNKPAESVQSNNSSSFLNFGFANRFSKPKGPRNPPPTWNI

[7] = target: T4, RNA-binding protein pos-1 (Caenorhabditis elegans, UniProt G5EF15); assay: disruptors of C. elegans POS-1 RNA interaction – biochemical, fluorescence polarization, dose response (AID 1964);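 note: purified POS-1 fused to maltose binding protein made in E. coli; potency of compounds blocking POS-1 binding to fluorescent RNA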
T4 sequence (G5EF15 whole entry): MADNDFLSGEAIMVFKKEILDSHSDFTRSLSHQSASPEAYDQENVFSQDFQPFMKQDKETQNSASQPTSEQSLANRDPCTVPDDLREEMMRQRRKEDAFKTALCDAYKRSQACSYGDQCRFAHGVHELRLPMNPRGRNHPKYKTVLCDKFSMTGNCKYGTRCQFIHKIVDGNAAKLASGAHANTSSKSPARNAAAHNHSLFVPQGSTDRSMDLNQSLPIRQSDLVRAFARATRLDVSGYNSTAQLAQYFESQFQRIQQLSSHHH

[8] = target: T5, Zinc finger protein mex-5 (Caenorhabditis elegans, UniProt Q9XUB2); assay: potency of MEX-5 RNA-binding blockers – biochemical, C. elegans, fluorescence polarization, dose response (AID 1960)
T5 sequence (Q9XUB2 whole entry): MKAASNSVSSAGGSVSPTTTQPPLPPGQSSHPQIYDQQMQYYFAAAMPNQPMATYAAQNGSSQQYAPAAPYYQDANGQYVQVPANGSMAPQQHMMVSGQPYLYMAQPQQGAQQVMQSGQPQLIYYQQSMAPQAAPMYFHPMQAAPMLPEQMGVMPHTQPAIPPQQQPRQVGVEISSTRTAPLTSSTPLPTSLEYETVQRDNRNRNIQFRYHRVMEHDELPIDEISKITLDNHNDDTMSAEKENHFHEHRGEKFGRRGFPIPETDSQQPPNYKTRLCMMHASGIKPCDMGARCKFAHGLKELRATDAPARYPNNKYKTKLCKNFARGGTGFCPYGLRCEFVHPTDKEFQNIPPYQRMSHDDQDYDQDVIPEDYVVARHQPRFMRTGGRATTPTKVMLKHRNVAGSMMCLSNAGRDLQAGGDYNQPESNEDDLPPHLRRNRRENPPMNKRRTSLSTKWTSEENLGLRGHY

[9] = target: T6, Sentrin-specific protease 1 (Homo sapiens, UniProt Q9P0U3); assay: SENP1 catalytic domain blockers, concentration series – biochemical, kinetic FRET, dose response (AID 651697); format: functional; conditions: read-out: IC50_Mean
T6 sequence (Q9P0U3 whole entry, the tested form may be a part): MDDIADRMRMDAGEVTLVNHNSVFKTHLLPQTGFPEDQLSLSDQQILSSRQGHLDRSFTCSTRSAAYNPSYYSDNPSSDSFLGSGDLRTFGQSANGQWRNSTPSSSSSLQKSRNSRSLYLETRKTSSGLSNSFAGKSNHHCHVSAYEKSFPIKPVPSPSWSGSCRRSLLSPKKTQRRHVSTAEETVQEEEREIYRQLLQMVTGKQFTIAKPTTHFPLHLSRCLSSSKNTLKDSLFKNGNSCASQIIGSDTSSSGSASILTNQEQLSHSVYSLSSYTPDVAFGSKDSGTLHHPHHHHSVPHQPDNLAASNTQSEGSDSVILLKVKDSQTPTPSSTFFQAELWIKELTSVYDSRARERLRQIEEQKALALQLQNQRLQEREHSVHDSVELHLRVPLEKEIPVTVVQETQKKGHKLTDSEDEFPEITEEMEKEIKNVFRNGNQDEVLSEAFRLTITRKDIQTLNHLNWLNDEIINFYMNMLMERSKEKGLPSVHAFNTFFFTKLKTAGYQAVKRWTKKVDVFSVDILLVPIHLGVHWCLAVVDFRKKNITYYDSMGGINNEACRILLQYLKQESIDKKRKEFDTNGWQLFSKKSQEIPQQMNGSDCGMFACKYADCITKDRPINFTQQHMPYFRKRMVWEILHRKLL

[10] = target: T6, Sentrin-specific protease 1; assay: Dose response confirmation of small molecule inhibitors of the catalytic domain of the SUMO protease, SENP1 in a FRET assay.; format: functional; conditions: read-out: IC50_Mean
[11] = target: T7, Rac GTPase-activating protein 1 (Homo sapiens, UniProt Q9H0H5); assay: blockers of MgcRacGAP-driven Rac1 GTP hydrolysis – biochemical, ADP Hunter fluorescence, primary and confirmatory, confirmation (AID 624330); format: functional
T7 sequence (Q9H0H5 whole entry): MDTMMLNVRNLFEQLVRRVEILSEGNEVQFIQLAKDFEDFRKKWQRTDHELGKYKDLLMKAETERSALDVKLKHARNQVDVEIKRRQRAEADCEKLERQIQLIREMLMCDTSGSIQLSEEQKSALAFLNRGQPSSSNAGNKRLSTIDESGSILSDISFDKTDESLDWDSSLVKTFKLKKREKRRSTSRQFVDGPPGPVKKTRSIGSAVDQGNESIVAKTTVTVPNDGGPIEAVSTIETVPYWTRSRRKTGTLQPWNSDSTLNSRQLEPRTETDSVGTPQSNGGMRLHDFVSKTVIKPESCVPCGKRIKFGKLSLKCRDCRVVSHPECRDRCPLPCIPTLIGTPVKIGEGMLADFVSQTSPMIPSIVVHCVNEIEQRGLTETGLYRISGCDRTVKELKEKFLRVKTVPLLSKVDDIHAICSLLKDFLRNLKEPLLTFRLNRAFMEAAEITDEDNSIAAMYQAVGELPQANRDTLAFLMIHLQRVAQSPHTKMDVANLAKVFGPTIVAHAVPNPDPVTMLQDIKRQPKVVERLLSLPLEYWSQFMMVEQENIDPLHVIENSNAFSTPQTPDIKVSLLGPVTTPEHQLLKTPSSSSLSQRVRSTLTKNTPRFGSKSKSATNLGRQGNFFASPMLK

DNA dC->dU-editing enzyme APOBEC-3A, sequence (P31941 whole entry): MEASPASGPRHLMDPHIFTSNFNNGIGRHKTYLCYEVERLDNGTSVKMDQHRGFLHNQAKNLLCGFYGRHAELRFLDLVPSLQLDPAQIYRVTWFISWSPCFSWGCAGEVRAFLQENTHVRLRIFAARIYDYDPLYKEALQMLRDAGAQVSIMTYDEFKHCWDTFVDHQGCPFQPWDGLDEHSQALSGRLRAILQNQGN

Row | EC50 [7] | EC50 [8] | IC50 [9] | IC50 [10] | IC50 [11] | SMILES | IC50 [1] | IC50 [2] | IC50 [3] | IC50 [4] | IC50 [5] | IC50 [6]
1 |  |  |  |  |  | CCN1CCN(C(=S)c2ccc(Cl)cc2)CC1 | > 100 µM (inactive) | 5.06 µM (active) | 0.318 µM (active) | 8.91 µM (active) | 0.341 µM (active) | 12.8 µM (active)
2 | 43.9 µM (active) | 59.3 µM (active) | 29 µM (inactive) | 42.4 µM (inactive) | 22.1 µM (active) | CC1(C)CC2=Nc3ccccc3SC2=C(O)C1 |  |  |  |  |  | 
